{
  "source": "patent US10688093B2",
  "about": "“Methods, compositions, and uses of novel Fyn kinase inhibitors” (priority 2015, dated 2020)",
  "data": [
    {"target": "full-length recombinant human FYN A (Homo sapiens (Human), UniProt P06241)", "sequence (P06241 whole entry)": "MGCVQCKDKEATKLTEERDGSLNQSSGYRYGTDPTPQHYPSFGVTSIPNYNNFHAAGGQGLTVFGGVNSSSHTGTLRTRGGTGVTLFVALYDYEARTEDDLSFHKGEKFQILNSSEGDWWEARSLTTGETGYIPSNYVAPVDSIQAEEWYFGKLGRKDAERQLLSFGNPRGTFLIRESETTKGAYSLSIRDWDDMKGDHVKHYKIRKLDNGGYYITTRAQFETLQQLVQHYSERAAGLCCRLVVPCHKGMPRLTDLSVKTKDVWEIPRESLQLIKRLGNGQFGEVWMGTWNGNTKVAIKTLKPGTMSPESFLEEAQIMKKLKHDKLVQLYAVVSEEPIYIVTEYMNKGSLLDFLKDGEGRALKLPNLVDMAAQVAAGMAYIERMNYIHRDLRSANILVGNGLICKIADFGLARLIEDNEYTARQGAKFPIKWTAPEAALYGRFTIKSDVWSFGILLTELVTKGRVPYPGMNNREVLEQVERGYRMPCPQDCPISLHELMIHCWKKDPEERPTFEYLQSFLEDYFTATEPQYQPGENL", "experiment": "ADP-Glo Kinase Assay of FYN kinase inhibition", "format": "biochemical", "settings": "primary screen, initial compounds", "outline": "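GST-tagged full-length FYN A (baculovirus, Sf9) at 3 pg preincubated 30 min RT with compound (10-point 3-fold series from 10 μM) in Tris pH 7.5/MgCl2 buffer. 12-mer tyrosine peptide plus 12.5 pmol ATP added, 90 min RT; ADP measured by ADP-Glo luminescence, IC50 from dose-response.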", "units": {"IC50": "nM"}, "values": [
      {"compound": "OCc1ccc(-c2ccc3ncc(-c4cccc(CO)c4)n3n2)cc1", "note": "[Compound 295, [4-[3-[3-(hydroxymethyl)phenyl]imidazo [1,2-b]pyridazin-6-yl]phenyl] methanol]", "IC50": 2230},
      {"compound": "NC(=O)c1ccc(-c2ccc3ncc(-c4cccc(CO)c4)n3n2)cc1", "note": "[Compound 296, 4-[3-[3-(hydroxymethyl)phenyl]imidazo [1,2-b]pyridazin-6-yl]benzamide]", "IC50": 1890},
      {"compound": "CN(C)CCNC(=O)c1cccc(-c2cnc3ccc(-c4ccc(CO)cc4)nn23)c1", "note": "[Compound 297, N-(2-dimethylamino-ethyl)-3-[6-[4-(hydroxymethyl)phenyl]imidazo [1,2-b]pyridazin-3-yl]benzamide]", "IC50": 1480},
      {"compound": "NC(=O)c1cccc(-c2ccc3ncc(-c4cccc(O)c4)n3n2)c1", "note": "[Compound 298, 3-[3-(3-hydroxyphenyl)imidazo[1,2-b]pyridazin-6-yl]benzamide]", "IC50": 311},
      {"compound": "COc1cc(-c2ccc3ncc(-c4ccc(CO)cc4)n3n2)ccc1O", "note": "[Compound 299, 4-[3-[4-(hydroxymethyl)phenyl]imidazo [1,2-b]pyridazin-6-yl]-2-methoxy-phenol]", "IC50": 223},
      {"compound": "COc1ccc(-c2cc(=O)c3cc(O)ccc3o2)cc1OC", "note": "[Compound 300, 2-(3,4-dimethoxy-phenyl)-6-hydroxy-chromen-4-one]", "IC50": 8950},
      {"compound": "OCc1cccc(-c2cnc3ccc(-c4cccnc4)nn23)c1", "note": "[Compound 301, [3-[6-(3-pyridyl)imidazo [1,2-b]pyridazin-3-yl]phenyl] methanol]", "IC50": 2040},
      {"compound": "OCc1cccc(-c2cnc3ccc(Cc4ccc(F)cc4)nn23)c1", "note": "[Compound 302, [3-[6-[(4-fluorophenyl)methyl]imidazo [1,2-b]pyridazin-3-yl]phenyl] methanol]", "IC50": 3970},
      {"compound": "COc1cccc(-c2ccc3ncc(-c4cccc(CO)c4)n3n2)c1", "note": "[Compound 303, [3-[6-(3-methoxyphenyl)imidazo[1,2-b]pyridazin-3-yl]phenyl] methanol]", "IC50": 2740},
      {"compound": "CS(=O)(=O)Nc1cccc(-c2ccc3ncc(-c4ccncc4)n3n2)c1", "note": "[Compound 304, N-[3-[3-(4-pyridyl)imidazo [1,2-b]pyridazin-6-yl]phenyl] methane-sulfonamide]", "IC50": 298},
      {"compound": "CN1CCN(c2ccc(Nc3cc4c(cn3)cc(-c3cccnc3)n4Cc3ccccc3)cc2)CC1", "note": "[Compound 305, 1-benzyl-N-[4-(4-methyl-piperazin-1-yl)phenyl]-2-(3-pyridyl)pyrrolo [3,2-c]pyridin-6-amine]", "IC50": 13700},
      {"compound": "c1ccc(Nc2cc3[nH]c(-c4cn[nH]c4)cc3cn2)nc1", "note": "[Compound 306, 2-(1H-pyrazol-4-yl)-N-(2-pyridyl)-1H-pyrrolo[3,2-c]pyridin-6-amine]", "IC50": 7570},
      {"compound": "CS(=O)(=O)c1ccc(Nc2cc3[nH]c(-c4cn[nH]c4)cc3cn2)cc1", "note": "[Compound 307, N-(4-methyl-sulfonylphenyl)-2-(1H-pyrazol-4-yl)-1H-pyrrolo[3,2-c]pyridin-6-amine]", "IC50": 4780},
      {"compound": "c1ccc(Cn2c(-c3cccnc3)cc3cnc(Nc4ccncn4)cc32)cc1", "note": "[Compound 308, 1-benzyl-2-(3-pyridyl)-N-pyrimidin-4-yl-pyrrolo[3,2-c]pyridin-6-amine]", "IC50": 6850},
      {"compound": "COc1cccc(Nc2cc3[nH]c(-c4cn[nH]c4)cc3cn2)c1", "note": "[Compound 309, N-(3-methoxyphenyl)-2-(1H-pyrazol-4-yl)-1H-pyrrolo[3,2-c]pyridin-6-amine]", "IC50": 16600},
      {"compound": "COc1ccc(Nc2cc3[nH]c(-c4cn[nH]c4)cc3cn2)cc1OC", "note": "[Compound 310, N-(3,4-dimethoxy-phenyl)-2-(1H-pyrazol-4-yl)-1H-pyrrolo[3,2-2]pyridin-6-amine]", "IC50": 12700},
      {"compound": "CN1CCN(c2ccc(Nc3cc4c(cn3)cc(-c3ccccc3)n4Cc3ccccc3)cc2)CC1", "note": "[Compound 311, 1-benzyl-N-[4-(4-methylpiperazin-1-yl)phenyl]-2-phenyl-pyrrolo[3,2-c]pyridin-6-amine]", "IC50": 15000},
      {"compound": "COc1ccccc1-c1ccc2ncc(-c3ccncc3)n2n1", "note": "[Compound 312, 6-(2-methoxyphenyl)-3-(4-pyridyl)imidazo [1,2-b]pyridazine]", "IC50": 585},
      {"compound": "NC(=O)c1cccc(-c2ccc3ncc(-c4ccncc4)n3n2)c1", "note": "[Compound 313, 3-[3-(4-pyridyl)imidazo [1,2-b]pyridazin-6-yl]benzamide]", "IC50": 1200},
      {"compound": "CC(=O)Nc1cccc(-c2cnc3ccc(-c4ccccc4)nn23)c1", "note": "[Compound 314, N-[3-(6-phenylimidazo [1,2-b]pyridazin-3-yl)phenyl] acetamide]", "IC50": 773},
      {"compound": "CC(=O)Nc1cccc(-c2cnc3ccc(-c4cccc(O)c4)nn23)c1", "note": "[Compound 315, N-[3-[6-(3-hydroxyphenyl)imidazo[1,2-b]pyridazin-3-yl]phenyl] acetamide]", "IC50": 1070},
      {"compound": "COc1ccc(-c2cnc3ccc(-c4cccc(F)c4)nn23)cc1OC", "note": "[Compound 316, 3-(3,4-dimethoxy-phenyl)-6-(3-fluorophenyl) imidazo[1,2-b]pyridazine]", "IC50": 1040},
      {"compound": "CC(=O)Nc1cccc(-c2cnc3ccc(-c4ccc(CO)cc4)nn23)c1", "note": "[Compound 317, N-[3-[6-[4-(hydroxymethyl)phenyl]imidazo [1,2-b]pyridazin-3-yl]phenyl] acetamide]", "IC50": 494},
      {"compound": "OCc1cccc(-c2cnc3ccc(-c4ccccc4)nn23)c1", "note": "[Compound 318, [3-(6-phenylimidazo [1,2-b]pyridazin-3-yl)phenyl] methanol]", "IC50": 1750},
      {"compound": "Clc1cccc(-c2ccc3ncc(-c4ccncc4)n3n2)c1", "note": "[Compound 319, 6-(3-chlorophenyl)-3-(4-pyridyl)imidazo [1,2-b]pyridazine]", "IC50": 258},
      {"compound": "COc1cc(-c2ccc3ncc(-c4ccc(OC)c(OC)c4)n3n2)ccc1O", "note": "[Compound 320, 4-[3-(3,4-dimethoxy-phenyl)imidazo [1,2-b]pyridazin-6-yl]-2-methoxy-phenol]", "IC50": 222},
      {"compound": "COc1ccccc1-c1ccc2ncc(-c3cccc(NC(C)=O)c3)n2n1", "note": "[Compound 321, N-[3-[6-(2-methoxyphenyl)imidazo[1,2-b]pyridazin-3-yl]phenyl] acetamide]", "IC50": 2850},
      {"compound": "CC(=O)Nc1cccc(-c2cnc3ccc(-c4cccc(C(F)(F)F)c4)nn23)c1", "note": "[Compound 322, N-[3-[6-[3-(trifluoromethyl)phenyl]imidazo [1,2-b]pyridazin-3-yl]phenyl] acetamide]", "IC50": 1600},
      {"compound": "COc1ccccc1-c1ccc2ncc(-c3cccc(CO)c3)n2n1", "note": "[Compound 323, [3-[6-(2-methoxyphenyl)imidazo[1,2-b]pyridazin-3-yl]phenyl] methanol]", "IC50": 1070},
      {"compound": "COc1cc(-c2ccc3ncc(-c4cccc(CO)c4)n3n2)ccc1O", "note": "[Compound 324, 4-[3-[3-(hydroxymethyl)phenyl]imidazo [1,2-b]pyridazin-6-yl]-2-methoxy-phenol]", "IC50": 153},
      {"compound": "c1ccc(-c2cnc3ccc(-c4ccncc4)nn23)cc1", "note": "[Compound 325, 3-phenyl-6-(4-pyridyl)imidazo [1,2-b]pyridazine]", "IC50": 6930},
      {"compound": "Oc1cccc(-c2ccc3ncc(-c4ccncc4)n3n2)c1", "note": "[Compound 326, 3-[3-(4-pyridyl)imidazo [1,2-b]pyridazin-6-yl]phenol]", "IC50": 223},
      {"compound": "COc1ccc(-c2cnc3ccc(-c4ccccc4)nn23)cc1OC", "note": "[Compound 327, 3-(3,4-dimethoxy-phenyl)-6-phenyl-imidazo[1,2-b]pyridazine]", "IC50": 420},
      {"compound": "COc1ccc(-c2cnc3ccc(-c4ccc(F)cc4)nn23)cc1OC", "note": "[Compound 328, 3-(3,4-dimethoxy-phenyl)-6-(4-fluorophenyl) imidazo[1,2-b]pyridazine]", "IC50": 1330},
      {"compound": "COc1cc(-c2ccc3ncc(-c4cccc(NC(C)=O)c4)n3n2)cc(OC)c1OC", "note": "[Compound 329, N-[3-[6-(3,4,5-trimethoxyphenyl)imidazo[1,2-b]pyridazin-3-yl]phenyl] acetamide]", "IC50": 3130},
      {"compound": "COc1cc(-c2ccc3ncc(-c4cccc(NC(C)=O)c4)n3n2)ccc1O", "note": "[Compound 330, N-[3-[6-(4-hydroxy-3-methoxy-phenyl)imidazo [1,2-b]pyridazin-3-yl]phenyl] acetamide]", "IC50": 93},
      {"compound": "c1ccc(-c2cnc3ccc(-c4cccnc4)nn23)cc1", "note": "[Compound 331, 3-phenyl-6-(3-pyridyl)imidazo [1,2-b]pyridazine]", "IC50": 3840},
      {"compound": "OCc1ccc(-c2ccc3ncc(-c4ccncc4)n3n2)cc1", "note": "[Compound 332]", "IC50": 255},
      {"compound": "COc1ccc(-c2cnc3ccc(-c4ccccc4OC)nn23)cc1OC", "note": "[Compound 333, 3-(3,4-dimethoxy-phenyl)-6-(2-methoxyphenyl) imidazo[1,2-b]pyridazine]", "IC50": 3120},
      {"compound": "COc1ccc(-c2cnc3ccc(-c4ccoc4)nn23)cc1OC", "note": "[Compound 334, 3-(3,4-dimethoxy-phenyl)-6-(3-furyl)imidazo [1,2-b]pyridazine]", "IC50": 983},
      {"compound": "CC(=O)Nc1cccc(-c2cnc3ccc(-c4ccoc4)nn23)c1", "note": "[Compound 335, N-[3-[6-(3-furyl)imidazo [1,2-b]pyridazin-3-yl]phenyl] acetamide]", "IC50": 1260},
      {"compound": "OCc1cccc(-c2cnc3ccc(-c4ccoc4)nn23)c1", "note": "[Compound 336, [3-[6-(3-furyl)imidazo [1,2-b]pyridazin-3-yl]phenyl] methanol]", "IC50": 3990},
      {"compound": "CN(C)c1ccc(-c2ccc3ncc(-c4ccncc4)n3n2)cc1", "note": "[Compound 337, N,N-dimethyl-4-[3-(4-pyridyl)imidazo[1,2-b]pyridazin-6-yl]aniline]", "IC50": 398},
      {"compound": "CS(=O)(=O)c1ccc(-c2ccc3ncc(-c4cccc(CO)c4)n3n2)cc1", "note": "[Compound 338, [3-[6-(4-methylsulfonyl-phenyl)imidazo [1,2-b]pyridazin-3-yl]phenyl] methanol]", "IC50": 3040},
      {"compound": "CC(=O)Nc1cccc(-c2ccc3ncc(-c4ccccc4)n3n2)c1", "note": "[Compound 339, N-[3-(3-phenylimidazo [1,2-b]pyridazin-6-yl)phenyl] acetamide]", "IC50": 3660},
      {"compound": "c1ccc(-c2ccc3ncc(-c4ccncc4)n3n2)cc1", "note": "[Compound 340, 6-phenyl-3-(4-pyridyl)imidazo [1,2-b]pyridazine]", "IC50": 229},
      {"compound": "Fc1cccc(-c2ccc3ncc(-c4ccncc4)n3n2)c1", "note": "[Compound 341, 6-(3-fluorophenyl)-3-(4-pyridyl) imidazo[1,2-b]pyridazine]", "IC50": 356}
    ]}
  ]
}
